# The source made the active and inactive calls. The calls are words filed in the database; no cut-off is given here.
# How the values were obtained:
# [1] = system: SK-OV-3; assay: Cytotoxicity against human SKOV3 cells; format: functional, cell-based
# [2] = Cytotoxicity against human MiaPaCa cells; format: functional, cell-based; conditions: MIA PaCa-2
# [3] = system: MIA PaCa-2; assay: Antitumor activity against human MIAPaCa2 cells xenografted in Ncr mouse assessed as tumor growth inhibition at 80 mg/kg, ip administered daily for 22 days measured on day 25 relative to vehicle-treated control; format: functional, organism-based; design: dose 80 mg/kg
# [4] = system: MDA-MB-231; assay: Cytotoxicity against human MDA-MB-231 cells; format: functional, cell-based
# [5] = Cytotoxicity against human H23 cells; format: functional, cell-based; conditions: NCI-H23
# [6] = Cytotoxicity against human SNU880 cells; format: functional, cell-based
# [7] = system: Mus musculus; assay: Toxicity in human MiaPaCa2 cells xenografted Ncr mouse at 50 to 100 mg/kg, po administered daily for 22 days; format: organism-based; design: dose 50-100 mg/kg, route oral; conditions: in vivo, 528 h
# [8] = system: MIA PaCa-2; assay: Antitumor activity against human MIAPaCa2 cells xenografted in Ncr mouse assessed as tumor growth inhibition at 100 mg/kg, po administered daily for 22 days measured on day 22 relative to vehicle-treated control; format: functional; conditions: MIA PaCa-2, 528 h, read-out: TGI
# [9] = Cytotoxicity against human Hep3B cells; format: functional, cell-based, Hep 3B2
# [10] = Cytotoxicity against human MIHA cells; format: functional, cell-based
# [11] = system: NCI-H69; assay: Cytotoxicity against human H69 cells; format: functional, cell-based
# [12] = system: NCI-H69; assay: Cytotoxicity against […] expressing human H69 cells; format: functional, cell-based
# [13] = Cytotoxicity against human MV522 cells; format: functional, cell-based
# [14] = system: NCI-H295R; assay: Cytotoxicity against human NCI-H295R cells; format: functional, cell-based
# [15] = Cytotoxicity against human VCaP cells; format: functional, cell-based
# [16] = Cytotoxicity against human A2780C/P cells; format: functional, cell-based
# [17] = system: A2780; assay: Cytotoxicity against human A2780 cells; format: functional, cell-based
# [18] = target: T1, Histone deacetylase 11 (Homo sapiens, UniProt Q96DB2); assay: Inhibition of HDAC11 (unknown origin)
# T1 sequence (Q96DB2 whole entry): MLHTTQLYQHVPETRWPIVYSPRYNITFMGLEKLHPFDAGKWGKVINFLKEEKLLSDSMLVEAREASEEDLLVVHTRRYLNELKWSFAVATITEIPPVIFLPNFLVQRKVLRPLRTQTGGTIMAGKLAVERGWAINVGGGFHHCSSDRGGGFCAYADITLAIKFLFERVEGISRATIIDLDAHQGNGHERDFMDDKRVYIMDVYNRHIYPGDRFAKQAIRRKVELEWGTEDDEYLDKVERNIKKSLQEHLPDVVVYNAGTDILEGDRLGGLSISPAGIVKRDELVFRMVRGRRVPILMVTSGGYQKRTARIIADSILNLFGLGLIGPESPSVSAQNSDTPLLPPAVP
# [19] = target: T2, Polyamine deacetylase HDAC10 (Homo sapiens, UniProt Q969S8); assay: Inhibition of HDAC10 (unknown origin)
# T2 sequence (Q969S8 whole entry): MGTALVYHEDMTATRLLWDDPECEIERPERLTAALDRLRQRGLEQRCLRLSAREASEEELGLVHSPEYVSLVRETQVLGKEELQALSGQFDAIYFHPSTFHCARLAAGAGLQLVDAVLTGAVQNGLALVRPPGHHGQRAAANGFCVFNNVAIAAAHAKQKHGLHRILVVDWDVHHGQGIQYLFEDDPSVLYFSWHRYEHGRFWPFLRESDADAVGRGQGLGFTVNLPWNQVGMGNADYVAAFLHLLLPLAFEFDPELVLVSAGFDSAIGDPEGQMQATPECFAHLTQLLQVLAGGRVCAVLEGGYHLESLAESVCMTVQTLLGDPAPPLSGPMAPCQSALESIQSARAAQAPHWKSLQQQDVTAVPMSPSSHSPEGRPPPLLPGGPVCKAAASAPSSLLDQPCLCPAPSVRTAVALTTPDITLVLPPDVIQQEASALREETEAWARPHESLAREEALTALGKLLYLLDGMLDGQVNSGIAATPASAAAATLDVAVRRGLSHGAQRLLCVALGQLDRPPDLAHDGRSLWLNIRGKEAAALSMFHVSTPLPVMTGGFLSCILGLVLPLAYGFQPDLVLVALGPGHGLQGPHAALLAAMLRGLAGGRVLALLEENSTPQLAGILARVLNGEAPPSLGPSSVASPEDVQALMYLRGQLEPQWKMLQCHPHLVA
# [20] = target: T3, Histone deacetylase 8 (Homo sapiens, UniProt Q9BY41); assay: Inhibition of HDAC8 (unknown origin)
# T3 sequence (Q9BY41 whole entry): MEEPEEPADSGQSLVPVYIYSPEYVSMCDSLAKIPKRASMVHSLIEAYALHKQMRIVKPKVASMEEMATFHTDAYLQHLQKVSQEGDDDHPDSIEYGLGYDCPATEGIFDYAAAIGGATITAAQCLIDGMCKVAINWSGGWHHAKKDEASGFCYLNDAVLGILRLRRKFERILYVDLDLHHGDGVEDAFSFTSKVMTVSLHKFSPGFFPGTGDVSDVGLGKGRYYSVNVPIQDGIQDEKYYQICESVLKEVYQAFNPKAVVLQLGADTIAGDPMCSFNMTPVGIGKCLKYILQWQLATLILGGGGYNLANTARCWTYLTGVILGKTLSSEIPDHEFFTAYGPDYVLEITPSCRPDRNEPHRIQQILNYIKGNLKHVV
# [21] = target: Histone deacetylase 9 (Homo sapiens, UniProt Q9UKV0); assay: Inhibition of HDAC9 (unknown origin)
# Chain of Histone deacetylase 9 (Q9UKV0 whole entry): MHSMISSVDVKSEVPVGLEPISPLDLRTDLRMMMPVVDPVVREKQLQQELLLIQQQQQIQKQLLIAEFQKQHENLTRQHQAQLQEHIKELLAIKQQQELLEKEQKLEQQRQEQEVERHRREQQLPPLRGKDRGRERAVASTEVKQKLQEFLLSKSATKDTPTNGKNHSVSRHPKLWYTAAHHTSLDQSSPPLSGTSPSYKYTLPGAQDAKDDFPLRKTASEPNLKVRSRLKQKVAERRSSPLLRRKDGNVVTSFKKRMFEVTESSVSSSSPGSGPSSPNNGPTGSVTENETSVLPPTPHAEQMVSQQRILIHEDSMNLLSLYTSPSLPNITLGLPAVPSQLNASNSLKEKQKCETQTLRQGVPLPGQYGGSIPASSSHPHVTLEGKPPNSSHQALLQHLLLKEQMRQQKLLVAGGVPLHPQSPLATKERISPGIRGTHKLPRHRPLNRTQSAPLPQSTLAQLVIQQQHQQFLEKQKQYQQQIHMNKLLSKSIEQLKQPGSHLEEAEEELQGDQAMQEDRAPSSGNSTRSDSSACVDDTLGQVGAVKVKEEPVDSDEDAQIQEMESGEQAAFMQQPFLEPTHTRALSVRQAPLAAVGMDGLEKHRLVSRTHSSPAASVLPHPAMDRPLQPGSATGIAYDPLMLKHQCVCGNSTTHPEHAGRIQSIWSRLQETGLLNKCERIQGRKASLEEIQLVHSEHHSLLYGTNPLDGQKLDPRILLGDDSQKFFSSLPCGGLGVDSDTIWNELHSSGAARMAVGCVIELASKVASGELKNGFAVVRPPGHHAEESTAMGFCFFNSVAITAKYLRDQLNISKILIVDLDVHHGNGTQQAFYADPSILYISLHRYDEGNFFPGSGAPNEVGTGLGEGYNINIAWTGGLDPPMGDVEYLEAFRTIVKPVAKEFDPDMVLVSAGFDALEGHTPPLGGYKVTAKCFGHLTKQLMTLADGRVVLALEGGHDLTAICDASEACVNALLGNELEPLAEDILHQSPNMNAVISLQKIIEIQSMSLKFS
# [22] = target: Histone deacetylase 5 (Homo sapiens, UniProt Q9UQL6); assay: Inhibition of HDAC5 (unknown origin)
# Chain of Histone deacetylase 5 (Q9UQL6 whole entry): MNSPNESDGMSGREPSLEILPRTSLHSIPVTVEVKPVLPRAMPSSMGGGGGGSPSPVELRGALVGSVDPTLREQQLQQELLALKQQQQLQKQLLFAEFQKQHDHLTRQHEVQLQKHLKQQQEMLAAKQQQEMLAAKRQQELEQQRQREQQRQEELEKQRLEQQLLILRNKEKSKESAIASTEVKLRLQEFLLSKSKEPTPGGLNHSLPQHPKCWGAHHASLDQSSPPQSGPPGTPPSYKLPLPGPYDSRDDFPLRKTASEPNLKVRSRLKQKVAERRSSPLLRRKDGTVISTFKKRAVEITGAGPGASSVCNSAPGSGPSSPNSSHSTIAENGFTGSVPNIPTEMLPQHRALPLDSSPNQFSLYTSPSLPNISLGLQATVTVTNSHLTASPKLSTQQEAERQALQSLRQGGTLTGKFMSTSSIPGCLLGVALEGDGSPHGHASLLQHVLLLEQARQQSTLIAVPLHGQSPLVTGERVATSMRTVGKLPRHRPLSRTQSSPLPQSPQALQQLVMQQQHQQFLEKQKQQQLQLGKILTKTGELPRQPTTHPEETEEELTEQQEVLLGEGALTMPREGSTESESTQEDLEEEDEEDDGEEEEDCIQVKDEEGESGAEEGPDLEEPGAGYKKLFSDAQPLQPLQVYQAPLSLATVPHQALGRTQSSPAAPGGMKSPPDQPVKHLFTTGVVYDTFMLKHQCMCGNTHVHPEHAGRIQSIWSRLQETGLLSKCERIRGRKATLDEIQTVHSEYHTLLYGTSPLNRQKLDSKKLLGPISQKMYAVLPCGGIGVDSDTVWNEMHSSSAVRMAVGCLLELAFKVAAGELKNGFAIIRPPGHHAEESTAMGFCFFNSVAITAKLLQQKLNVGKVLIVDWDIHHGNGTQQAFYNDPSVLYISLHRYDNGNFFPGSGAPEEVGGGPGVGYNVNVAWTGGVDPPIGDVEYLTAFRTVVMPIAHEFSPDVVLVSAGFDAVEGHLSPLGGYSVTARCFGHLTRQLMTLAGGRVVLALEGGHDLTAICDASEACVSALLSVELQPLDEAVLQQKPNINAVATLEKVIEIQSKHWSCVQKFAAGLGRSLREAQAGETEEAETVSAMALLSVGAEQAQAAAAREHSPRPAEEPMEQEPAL
# [23] = target: T4, Protein deacetylase HDAC6 (Homo sapiens, UniProt Q9UBN7); assay: Inhibition of HDAC6 (unknown origin)
# T4 sequence (Q9UBN7 whole entry): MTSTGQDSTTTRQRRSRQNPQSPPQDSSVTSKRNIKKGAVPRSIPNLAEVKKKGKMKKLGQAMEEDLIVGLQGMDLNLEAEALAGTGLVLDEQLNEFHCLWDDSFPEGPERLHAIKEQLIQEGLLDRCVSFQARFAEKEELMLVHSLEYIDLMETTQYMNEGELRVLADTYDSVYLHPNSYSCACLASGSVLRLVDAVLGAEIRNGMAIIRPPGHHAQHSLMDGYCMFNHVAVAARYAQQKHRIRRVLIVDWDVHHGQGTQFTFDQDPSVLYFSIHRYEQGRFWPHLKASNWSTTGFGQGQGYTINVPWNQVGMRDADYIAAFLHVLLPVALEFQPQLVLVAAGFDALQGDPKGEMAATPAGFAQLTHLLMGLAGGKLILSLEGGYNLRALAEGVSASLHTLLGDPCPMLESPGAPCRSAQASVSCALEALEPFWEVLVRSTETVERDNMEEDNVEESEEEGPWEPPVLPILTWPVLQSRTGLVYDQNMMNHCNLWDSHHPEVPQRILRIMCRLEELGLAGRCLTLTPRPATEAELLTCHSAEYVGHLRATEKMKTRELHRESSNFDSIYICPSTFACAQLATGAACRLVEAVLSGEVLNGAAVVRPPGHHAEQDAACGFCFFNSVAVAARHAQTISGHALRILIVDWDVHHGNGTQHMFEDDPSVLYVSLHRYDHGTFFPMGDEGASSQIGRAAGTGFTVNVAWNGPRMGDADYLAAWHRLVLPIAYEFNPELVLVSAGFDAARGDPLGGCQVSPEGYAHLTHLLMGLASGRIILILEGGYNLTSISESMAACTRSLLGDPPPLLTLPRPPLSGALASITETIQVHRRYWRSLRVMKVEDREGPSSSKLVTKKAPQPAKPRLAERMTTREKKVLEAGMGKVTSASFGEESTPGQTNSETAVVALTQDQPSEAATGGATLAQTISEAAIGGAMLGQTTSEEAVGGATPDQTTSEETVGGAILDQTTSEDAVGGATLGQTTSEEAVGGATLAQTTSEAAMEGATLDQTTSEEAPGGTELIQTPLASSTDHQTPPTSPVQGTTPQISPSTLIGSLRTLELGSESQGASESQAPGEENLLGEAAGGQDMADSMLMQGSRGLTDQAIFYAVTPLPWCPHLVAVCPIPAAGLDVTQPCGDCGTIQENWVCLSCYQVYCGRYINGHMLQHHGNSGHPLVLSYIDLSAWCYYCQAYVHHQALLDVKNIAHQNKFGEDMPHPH
# [24] = target: Histone deacetylase 4 (Homo sapiens, UniProt P56524); assay: Inhibition of HDAC4 (unknown origin)
# Chain of Histone deacetylase 4 (P56524 whole entry): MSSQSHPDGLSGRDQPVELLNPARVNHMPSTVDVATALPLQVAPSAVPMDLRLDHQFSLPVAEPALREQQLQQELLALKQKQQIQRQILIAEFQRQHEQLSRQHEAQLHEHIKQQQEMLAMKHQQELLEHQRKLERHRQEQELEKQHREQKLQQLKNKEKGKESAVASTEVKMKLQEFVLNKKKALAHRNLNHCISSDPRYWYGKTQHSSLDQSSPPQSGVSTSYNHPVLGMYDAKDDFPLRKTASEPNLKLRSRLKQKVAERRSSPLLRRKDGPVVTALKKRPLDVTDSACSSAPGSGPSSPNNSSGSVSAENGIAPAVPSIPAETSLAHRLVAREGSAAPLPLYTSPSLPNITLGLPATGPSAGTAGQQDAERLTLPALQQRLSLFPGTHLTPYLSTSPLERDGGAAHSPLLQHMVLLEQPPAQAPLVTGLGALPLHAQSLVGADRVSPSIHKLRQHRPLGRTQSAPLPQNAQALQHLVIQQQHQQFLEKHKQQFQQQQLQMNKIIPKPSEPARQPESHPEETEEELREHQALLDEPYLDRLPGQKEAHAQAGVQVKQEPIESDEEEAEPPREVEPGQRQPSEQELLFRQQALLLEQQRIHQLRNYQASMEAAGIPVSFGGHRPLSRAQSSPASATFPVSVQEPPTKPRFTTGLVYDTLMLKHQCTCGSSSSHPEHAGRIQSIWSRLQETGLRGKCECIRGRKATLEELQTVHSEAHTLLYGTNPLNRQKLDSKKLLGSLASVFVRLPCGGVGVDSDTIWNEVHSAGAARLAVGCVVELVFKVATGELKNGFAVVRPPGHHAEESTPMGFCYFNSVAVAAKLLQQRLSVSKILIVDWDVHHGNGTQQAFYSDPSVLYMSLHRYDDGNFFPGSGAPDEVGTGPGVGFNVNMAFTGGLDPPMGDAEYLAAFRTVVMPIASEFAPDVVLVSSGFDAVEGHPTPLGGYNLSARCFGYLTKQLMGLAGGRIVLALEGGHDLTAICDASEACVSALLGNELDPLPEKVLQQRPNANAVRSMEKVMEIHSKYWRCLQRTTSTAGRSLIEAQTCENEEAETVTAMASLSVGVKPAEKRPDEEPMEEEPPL
# [25] = target: Histone deacetylase 2 (Homo sapiens, UniProt Q92769); assay: Inhibition of HDAC2 (unknown origin)
# Chain of Histone deacetylase 2 (Q92769 whole entry): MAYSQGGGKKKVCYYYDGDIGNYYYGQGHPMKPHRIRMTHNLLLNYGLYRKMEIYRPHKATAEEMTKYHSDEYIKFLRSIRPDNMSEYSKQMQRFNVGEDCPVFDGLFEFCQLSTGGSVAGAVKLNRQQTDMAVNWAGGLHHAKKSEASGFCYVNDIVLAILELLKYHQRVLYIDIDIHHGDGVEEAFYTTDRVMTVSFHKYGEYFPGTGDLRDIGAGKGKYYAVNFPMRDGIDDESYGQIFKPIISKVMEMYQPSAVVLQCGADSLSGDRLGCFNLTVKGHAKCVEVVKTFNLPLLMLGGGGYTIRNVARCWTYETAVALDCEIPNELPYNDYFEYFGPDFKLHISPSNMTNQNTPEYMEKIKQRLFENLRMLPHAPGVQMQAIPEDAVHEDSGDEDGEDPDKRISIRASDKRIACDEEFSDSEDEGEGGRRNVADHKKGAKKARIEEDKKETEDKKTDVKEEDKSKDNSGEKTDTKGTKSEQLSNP
# [26] = target: Histone deacetylase 1 (Homo sapiens, UniProt Q13547); assay: Inhibition of HDAC1 (unknown origin)
# Chain of Histone deacetylase 1 (Q13547 whole entry): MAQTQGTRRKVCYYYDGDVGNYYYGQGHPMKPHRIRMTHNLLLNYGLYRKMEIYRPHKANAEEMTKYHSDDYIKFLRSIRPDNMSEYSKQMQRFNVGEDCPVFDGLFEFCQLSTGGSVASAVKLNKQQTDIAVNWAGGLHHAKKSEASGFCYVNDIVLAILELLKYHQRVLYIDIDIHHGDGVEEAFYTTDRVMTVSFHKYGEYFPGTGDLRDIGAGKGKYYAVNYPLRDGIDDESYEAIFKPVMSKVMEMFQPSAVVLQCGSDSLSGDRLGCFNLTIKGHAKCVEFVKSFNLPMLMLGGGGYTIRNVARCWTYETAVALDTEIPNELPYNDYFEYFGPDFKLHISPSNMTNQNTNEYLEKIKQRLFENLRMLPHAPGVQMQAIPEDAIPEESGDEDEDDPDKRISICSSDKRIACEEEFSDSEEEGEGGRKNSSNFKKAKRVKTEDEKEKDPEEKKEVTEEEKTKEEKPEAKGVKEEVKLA
# [27] = target: Histone deacetylase 3 (Homo sapiens, UniProt O15379); assay: Inhibition of HDAC3 (unknown origin)
# Chain of Histone deacetylase 3 (O15379 whole entry): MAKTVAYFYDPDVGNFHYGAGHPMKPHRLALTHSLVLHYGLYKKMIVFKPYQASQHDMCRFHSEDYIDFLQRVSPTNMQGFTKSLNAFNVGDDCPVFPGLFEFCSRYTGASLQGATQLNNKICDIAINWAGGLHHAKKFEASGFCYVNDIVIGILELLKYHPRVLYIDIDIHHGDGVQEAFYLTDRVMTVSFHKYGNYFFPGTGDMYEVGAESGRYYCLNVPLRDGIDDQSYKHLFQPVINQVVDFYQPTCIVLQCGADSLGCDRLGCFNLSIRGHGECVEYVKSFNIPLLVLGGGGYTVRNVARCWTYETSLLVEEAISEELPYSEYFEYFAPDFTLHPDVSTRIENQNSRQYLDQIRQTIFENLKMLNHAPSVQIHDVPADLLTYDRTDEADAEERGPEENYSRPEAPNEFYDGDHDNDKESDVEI
smiles,measurement,setting,value
O=C(CCCCCCc1nc2ccccc2n1C1CCCC1)NO,IC50,[1],4.8 µM
O=C(CCCCCCc1nc2ccc(-c3cccc(F)c3)cc2[nH]1)NO,IC50,[1],1.5 µM
O=C(CCCCCCC(=O)Nc1ccccc1)NO [VORINOSTAT],IC50,[2],2.3 µM
same,IC50,[1],2.3 µM
O=C(CCCCCCc1nc2ccccc2n1-c1ccccc1)NO,IC50,[1],> 20 µM
O=C(CCCCCCc1nc2ccc(-c3ccc(F)cc3)cc2[nH]1)NO,IC50,[1],1.2 µM
O=C(CCCCCCc1nc2ccc(-c3ccccc3)cc2[nH]1)NO,IC50,[1],0.1 µM
O=C(CCCCCCc1nc2ccccc2[nH]1)NO,IC50,[1],2.7 µM
O=C(CCCCCCc1nc2ccc(-c3ccccc3F)cc2[nH]1)NO,IC50,[1],7.4 µM
CN(C)c1ccc(-c2ccc3nc(CCCCCCC(=O)NO)[nH]c3c2)cc1,IC50,[1],6.6 µM
O=C(CCCCCCc1nc2cccc(Cl)c2[nH]1)NO,IC50,[1],10 µM
O=C(CCCCCCc1nc2ccc(-c3cncnc3)cc2[nH]1)NO,IC50,[1],2.6 µM
Nc1ccn([C@@H]2O[C@H](CO)[C@@H](O)C2(F)F)c(=O)n1,TGI,[3],Active
O=C(CCCCCCc1nc2ccc(Cl)cc2[nH]1)NO,IC50,[1],0.32 µM
O=C(CCCCCCc1nc2ccncc2[nH]1)NO,IC50,[1],> 20 µM
CN(C)c1ccc2nc(CCCCCCC(=O)NO)[nH]c2c1,IC50,[1],1.2 µM
COc1ccc(-c2ccc3nc(CCCCCCC(=O)NO)[nH]c3c2)cc1,IC50,[1],3.1 µM
Cn1c(CCCCCCC(=O)NO)nc2ccccc21,IC50,[1],3 µM
O=C(CCCCCCc1nc2ccc(Br)cc2[nH]1)NO,IC50,[4],0.82 µM
same,IC50,[5],0.56 µM
same,IC50,[6],0.98 µM
same,Activity,[7],Non-toxic
same,inhibition in vivo at 100 mg/kg,[8],74%
same,IC50,[9],0.61 µM
same,IC50,[10],0.23 µM
same,IC50,[11],0.15 µM
same,IC50,[12],0.17 µM
same,IC50,[13],2.2 µM
same,IC50,[14],0.18 µM
same,IC50,[15],2.4 µM
same,IC50,[16],2 µM
same,IC50,[2],0.089 µM
same,IC50,[17],1.9 µM
same,IC50,[18],0.0334 µM
same,IC50,[19],0.003 µM
same,IC50,[20],0.282 µM
same,IC50,[21],0.0011 µM
same,IC50,[22],0.0025 µM
same,IC50,[23],0.0019 µM
same,IC50,[24],0.279 µM
same,IC50,[1],0.26 µM
same,IC50,[25],0.0341 µM
same,IC50,[26],0.0202 µM
same,IC50,[27],0.0064 µM
O=C(CCCCCCc1nc2ccccc2n1C1CC1)NO,IC50,[1],9.5 µM
O=C(CCCCCc1nc2ccccc2[nH]1)NO,IC50,[1],11 µM
O=C(CCCCCCc1nc2ccc(F)cc2[nH]1)NO,IC50,[1],1.9 µM
COc1ccc2nc(CCCCCCC(=O)NO)[nH]c2c1,IC50,[1],11 µM
